Data taken from paper PMC4674167 (The Journal of organic chemistry, 2015).
Read-outs that look alike come from different tables or passages of the source.

Columns and labels:
[1] = rat, in vivo; for i.v. AUC0-inf / i.v. CL / i.v. t1/2: iv, 2.5 mg/kg; for p.o. AUC0-inf / p.o. Cmax: po, 25 mg/kg
MbtA = MbtA (Mycobacterium tuberculosis, UniProt P71716); type: biochemical; conditions: for fold more potent in MbtA inhibition than the 3′-α-fluoro diastereomer: 14 vs 15, 16 vs 17; for Ki: read-out: Ki^app, apparent Ki against MbtA
Sequence of MbtA (P71716 whole entry): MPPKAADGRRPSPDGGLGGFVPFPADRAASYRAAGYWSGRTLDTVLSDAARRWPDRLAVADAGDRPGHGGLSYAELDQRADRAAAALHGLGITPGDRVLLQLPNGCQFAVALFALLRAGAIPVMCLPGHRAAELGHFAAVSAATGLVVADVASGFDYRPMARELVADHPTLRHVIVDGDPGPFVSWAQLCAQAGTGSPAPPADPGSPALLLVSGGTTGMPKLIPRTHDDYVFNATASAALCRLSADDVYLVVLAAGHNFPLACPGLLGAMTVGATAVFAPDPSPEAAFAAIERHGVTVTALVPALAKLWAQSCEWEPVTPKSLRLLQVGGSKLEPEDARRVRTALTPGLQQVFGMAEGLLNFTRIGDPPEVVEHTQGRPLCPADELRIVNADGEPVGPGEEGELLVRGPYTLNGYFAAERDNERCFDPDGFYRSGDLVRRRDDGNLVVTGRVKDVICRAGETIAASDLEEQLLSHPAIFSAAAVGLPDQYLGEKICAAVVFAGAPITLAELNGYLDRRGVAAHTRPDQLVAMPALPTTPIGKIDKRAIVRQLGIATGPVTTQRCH

[2] = test system: M. tuberculosis strain H37Rv; type: cell-based, Mycobacterium tuberculosis; conditions: for fold more potent in MIC than the 3′-α-fluoro diastereomer: 14 vs 15, 16 vs 17, M. tuberculosis H37Rv
[3] = rat, in vivo, cited from earlier work; for p.o. AUC0-inf / p.o. Cmax: po, 25 mg/kg
[4] = Single dose pharmacokinetics in cannulated rats

SMILES | F (relative oral bioavailability) [1] [%] | i.v. AUC0-inf [1] [μg.min.mL^–1] | i.v. CL [1] [mL.min^–1.kg^–1] | i.v. t1/2 [1] [min] | p.o. AUC0-inf [1] [μg.min.mL^–1] | p.o. Cmax [1] [μg.mL^–1] | Ki (MbtA) [nM] | MIC [2] [µM] | also measured
CCN(CC)CC.Nc1ncnc2c1ncn2[C@@H]1O[C@H](CNS(=O)(=O)NC(=O)c2ccccc2O)[C@H](F)[C@H]1O [compound 14, 9-[3,5-Dideoxy-3-fluoro-5-{N-(N-2-hydroxybenzoyl)sulfamoyl}amino-β-D-xylofuranosyl]adenine Triethylammonium Salt] | 2.3 ± 0.4 | 366 ± 33 | 6.9 ± 0.3 | 17.4 ± 1.4 | 84 ± 12 | 0.64 ± 0.22 | 0.6 ± 0.3 | 0.60 | fold more potent in MbtA inhibition than the 3′-α-fluoro diastereomer (MbtA): approximately 10 fold; fold more potent in MIC than the 3′-α-fluoro diastereomer [2]: fourfold
CCN(CC)CC.Nc1ncnc2c1ncn2[C@@H]1O[C@H](CNS(=O)(=O)NC(=O)c2ccccc2O)[C@H](F)[C@H]1F [compound 16, 9-[2,3,5-Trideoxy-2,3-difluoro-5-{N-(N-2-hydroxybenzoyl)sulfamoyl}amino-β-D-xylofuranosyl]adenine Triethylammonium Salt] | 11.4 ± 0.3 | 312 ± 54 | 8.5 ± 1.6 | 17.2 ± 1.3 | 362 ± 85 | 0.97 ± 0.42 | 1.4 ± 0.3 | 0.78 | fold more potent in MbtA inhibition than the 3′-α-fluoro diastereomer (MbtA): ~100 fold; fold more potent in MIC than the 3′-α-fluoro diastereomer [2]: ca. 50 fold
CCN(CC)CC.Nc1ncnc2c1ncn2[C@@H]1O[C@H](CNS(=O)(=O)NC(=O)c2ccccc2O)[C@@H](F)[C@H]1O [compound 15, 9-[3,5-Dideoxy-3-fluoro-5-{N-(N-2-hydroxybenzoyl)sulfamoyl}amino-β-D-ribofuranosyl]adenine Triethylammonium Salt] | 3.5 ± 0.2 | 807 ± 78 | 3.1 ± 0.3 | 37.0 ± 1.7 | 266 ± 2 | 0.92 ± 0.04 | 6.4 ± 0.3 | 2.3 | 
CCN(CC)CC.Nc1ncnc2c1ncn2[C@@H]1O[C@H](CNS(=O)(=O)NC(=O)c2ccccc2O)[C@@H](O)[C@H]1F [compound 12, 9-[2,5-Dideoxy-2-fluoro-5-{N-(N-2-hydroxybenzoyl)sulfamoyl}amino-β-D-ribofuranosyl]adenine Triethylammonium Salt] | 1.8 ± 0.9 | 1040 ± 330 | 2.5 ± 0.9 | 32.5 ± 7.4 | 187 ± 11 | 0.46 ± 0.30 | 1.7 to 1.8 | 0.19 | Ki (MbtA; listed as C00001): 1.7 ± 0.1 nM
Nc1ncnc2c1ncn2[C@@H]1O[C@H](CNS(=O)(=O)NC(=O)c2ccccc2O)[C@@H](O)[C@H]1O [compound 11] |  |  |  |  |  |  |  |  | i.v. AUC0-inf ([3]; iv, 2.5 mg/kg): 304 ± 60 μg.min.mL^–1; i.v. CL ([3]; iv, 2.5 mg/kg): 8.4 ± 1.9 mL.min^–1.kg^–1; i.v. t1/2 ([3]; iv, 2.5 mg/kg): 10.6 ± 0.7 min; p.o. AUC0-inf [3]: 100 ± 14 μg.min.mL^–1; p.o. Cmax [3]: 0.70 ± 0.07 μg.mL^–1; F (relative oral bioavailability) [3]: 3.5 ± 0.2%
CCN(CC)CC.Nc1ncnc2c1ncn2[C@@H]1O[C@H](CNS(=O)(=O)NC(=O)c2ccccc2O)[C@@H](O)[C@@H]1F [compound 13, 9-[2,5-Dideoxy-2-fluoro-5-{N-(N-2-hydroxybenzoyl)sulfamoyl}amino-β-D-arabinofuranosyl]adenine Triethylammonium Salt] | 4.7 ± 1.1 | 913 ± 65 | 2.7 ± 0.2 | 31.7 ± 1.9 | 422 ± 70 | 1.09 ± 0.03 | 1.7 to 1.8 | 0.15 | Ki (MbtA; listed as C00003): 1.8 ± 0.1 nM
CCN(CC)CC.Nc1ncnc2c1ncn2[C@@H]1O[C@H](CNS(=O)(=O)NC(=O)c2ccccc2O)[C@@H](F)[C@H]1F [compound 17, 9-[2,3,5-Trideoxy-2,3-difluoro-5-{N-(N-2-hydroxybenzoyl)sulfamoyl}amino-β-D-ribofuranosyl]adenine Triethylammonium Salt] | 5.3 ± 1.3 | 10100 ± 2200 | 0.24 ± 0.06 | 267 ± 36 | 4730 ± 540 | 5.99 ± 0.56 | 139 ± 10 | 37 | fold increase in half-life compared to SAL-AMS (10) [4]: ca. 25 fold; fold higher Cmax compared to SAL-AMS (10) ([4]; p.o. 25 mg/kg): 15 fold; fold increase in F% compared to SAL-AMS (10) ([4]; p.o. 25 mg/kg): fourfold; fold increased oral exposure (oral AUC) compared to SAL-AMS (10) ([4]; p.o. 25 mg/kg): ca. 75 fold
Nc1ncnc2c1ncn2[C@@H]1O[C@H](COS(=O)(=O)NC(=O)c2ccccc2O)[C@@H](O)[C@H]1O [compound 10, 5′-O-[N-(salicyl)sulfamoyl]adenosine] |  |  |  |  |  |  |  |  | i.v. AUC0-inf ([3]; iv, 2.5 mg/kg): 519 ± 115 μg.min.mL^–1; i.v. t1/2 ([3]; iv, 2.5 mg/kg): 11.2 ± 2.2 min; p.o. AUC0-inf [3]: 66 ± 41 μg.min.mL^–1; p.o. Cmax [3]: 0.40 ± 0.20 μg.mL^–1; F (relative oral bioavailability) [3]: 1.3 ± 0.7%
